The values that follow come from patent US9163021B2, “Pyrrolo[3,2-c]pyridine tropomyosin-related kinase inhibitors” (Pfizer Limited, priority 2012, dated 2015).

As a reminder, the IC50 is the concentration that inhibits the measured activity by half. Read a high IC50 as weaker potency.

Sequence of TRKA (P04629 441-796): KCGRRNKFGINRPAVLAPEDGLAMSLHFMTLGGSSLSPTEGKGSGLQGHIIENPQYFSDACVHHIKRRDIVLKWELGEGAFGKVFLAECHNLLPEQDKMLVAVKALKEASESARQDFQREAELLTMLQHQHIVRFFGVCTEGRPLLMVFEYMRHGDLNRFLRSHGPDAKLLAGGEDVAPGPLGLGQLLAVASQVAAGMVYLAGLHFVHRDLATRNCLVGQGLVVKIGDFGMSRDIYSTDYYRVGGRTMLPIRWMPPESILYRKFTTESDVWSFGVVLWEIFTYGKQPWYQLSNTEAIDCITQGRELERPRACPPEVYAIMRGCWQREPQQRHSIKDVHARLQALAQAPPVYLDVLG

The experiment concerns the target TRKA (Homo sapiens (Human), UniProt P04629). The experiment in a line: Isolated TRK enzyme assay (HTRF KinEASE-TK), PV3144 TrkA enzyme assay. The format is biochemical. As to conditions: arithmetic mean where more than one reading. How it is done: Isolated TRK Enzyme assays use the HTRF KinEASE-TK kit (Cisbio Cat#62TK0PEJ) with recombinant His-tagged cytoplasmic domains of each TRK receptor sourced from Invitrogen (see table below). This activity-assay measures the phosphorylation of tyrosine residues within a substrate from the HTRF kit which has been validated by Cisbio for a variety of tyrosine kinases including the TRK receptors.
0.5 mM stock solutions of test compounds are prepared and serially diluted in 100% DMSO. A standard curve using the compound of Example 135 disclosed in WO2005/116035 of 150 uM is also prepared on each test plate. High percentage effect (HPE) is defined by 150 uM (using the compound of Example 135 as disclosed in WO2005/116035) and 0% effect (ZPE) is defined by 100% DMSO. Greiner low volume black plates containing 0.2 ul of serially diluted compound, standard and HPE/ZPE are created using the Bravo nanoliter dispenser.
1× enzyme buffer is prepared from 5× Enzymatic Buffer from the Cisbio KinEASE TK kit using MilliQ water. The buffer is then supplemented with 10 mM MgCI and 2 mM DTT (both from Sigma). In the case of TRKB, the buffer is also supplemented with 125 nM Supplement Enzymatic Buffer (SEB) from the Cisbio kit.
2× FAC of enzyme and 2× FAC ATP diluted in 1× complete enzyme buffer is incubated at room temperature for 20 minutes to preactivate the enzyme. Following this preactivation step, 5 ul/well of enzyme+ATP mix is added using a Multidrop Micro to the assay plate, spotted with 0.2 ul 100% DMSO compound. This is left for 20 mins at room temperature before adding 5 ul of 2 uM TK-substrate-Biotin (from the Cisbio kit) diluted in 1× enzyme buffer (1 uM FAC) using the Multidrop Micro. The reaction is incubated at room temperature for the optimized assay reaction time (see table). The reaction is stopped by adding 10 ul/well HTRF Detection Buffer containing 0.25 uM Streptavidin-XL665 (0.125 uM FAC) and 1:200 TK Antibody-Cryptate using a Multidrop.
After the Detection Reagent addition, plates are covered and incubated at room temperature for 60 minutes. HTRF signal is read using an Envision reader, measured as a ratio of emissions at two different wavelengths, 620 nm and 665 nm. […] Test compound data are expressed as percentage inhibition defined by HPE and ZPE values for each plate. Percentage inhibition in the presence of test compound is plotted against compound concentration on a log scale to determine an IC50 from the resultant sigmoid curve.
Where more than one reading was taken, the arithmetic mean is presented.
The compound `CC(CO)n1cc(C(=O)c2cncc(NC(=O)Cc3ccc(F)cn3)c2)c2cnccc21` (single isomer, unassigned) [Example 74, 2-(5-fluoropyridin-2-yl)-N-(5-{[1-(1-hydroxypropan-2-yl)-1H-pyrrolo[3,2-c]pyridin-3-yl]carbonyl}pyridin-3-yl)acetamide] gave an IC50 of 233 nM.
The figure for `CC(CO)n1cc(C(=O)c2cncc(NC(=O)Cn3cc(C4CC4)nn3)c2)c2cnccc21` (single isomer, unassigned) [Example 76, 2-(4-cyclopropyl-1H-1,2,3-triazol-1-yl)-N-(5-{[1-(1-hydroxypropan-2-yl)-1H-pyrrolo[3,2-c]pyridin-3-yl]carbonyl}pyridin-3-yl)acetamide] is 121 nM; for `Cc1cc(C(F)(F)F)nn1CC(=O)Nc1cncc(C(=O)c2cn(C(C)CO)c3ccncc23)c1` (single isomer, unassigned) [Example 77, N-(5-{[1-(1-hydroxypropan-2-yl)-1H-pyrrolo[3,2-c]pyridin-3-yl]carbonyl}pyridin-3-yl)-2-[5-methyl-3-(trifluoromethyl)-1H-pyrazol-1-yl]acetamide] it is 33.7 nM; for `CC(CO)n1cc(C(=O)c2cc(NC(=O)Cc3ccc(Cl)cn3)ccn2)c2cnccc21` (single isomer, unassigned) [Example 86, 2-(5-chloropyridin-2-yl)-N-(2-{[1-(1-hydroxypropan-2-yl)-1H-pyrrolo[3,2-c]pyridin-3-yl]carbonyl}pyridin-4-yl)acetamide] it is 93.2 nM.
The figure for `CC(CO)n1cc(C(=O)c2cncc(NC(=O)Cc3ccc(Cl)cc3)c2)c2cncc(F)c21` (single isomer, unassigned) [Example 206, 2-(4-chlorophenyl)-N-(5-{[7-fluoro-1-(1-hydroxypropan-2-yl)-1H-pyrrolo[3,2-c]pyridin-3-yl]carbonyl}pyridin-3-yl)acetamide] is 20.7 nM; for `CC(CO)n1cc(C(=O)c2cncc(NC(=O)Cn3cc(C4CC4)nn3)c2)c2cncc(F)c21` (single isomer, unassigned) [Example 207, 2-(4-cyclopropyl-1H-1,2,3-triazol-1-yl)-N-(5-{[7-fluoro-1-(1-hydroxypropan-2-yl)-1H-pyrrolo[3,2-c]pyridin-3-yl]carbonyl}pyridin-3-yl)acetamide] it is 179 nM; for `CC(CO)n1cc(C(=O)c2cncc(NC(=O)Cn3ccc(C(F)(F)F)n3)c2)c2cncc(F)c21` (single isomer, unassigned) [Example 208, N-(5-{[7-fluoro-1-(1-hydroxypropan-2-yl)-1H-pyrrolo[3,2-c]pyridin-3-yl]carbonyl}pyridin-3-yl)-2-[3-(trifluoromethyl)-1H-pyrazol-1-yl]acetamide] it is 29.7 nM.
The figure for `CC(CO)n1cc(C(=O)c2cncc(NC(=O)Cn3ccc(C(F)(F)F)n3)c2)c2cncc(F)c21` (single isomer, unassigned) [Example 210, N-(5-{[7-fluoro-1-(1-hydroxypropan-2-yl)-1H-pyrrolo[3,2-c]pyridin-3-yl]carbonyl}pyridin-3-yl)-2-[3-(trifluoromethyl)-1H-pyrazol-1-yl]acetamide] is 45.6 nM.
Compound `CC(CO)n1cc(C(=O)c2cncc(NC(=O)Cc3ccc(Cl)cn3)c2)c2cncc(F)c21` (single isomer, unassigned) [Example 211, 2-(5-chloropyridin-2-yl)-N-(5-{[7-fluoro-1-(1-hydroxypropan-2-yl)-1H-pyrrolo[3,2-c]pyridin-3-yl]carbonyl}pyridin-3-yl)acetamide] gave an IC50 of 93.3 nM.
The result for `CC(CO)n1cc(C(=O)c2cncc(NC(=O)Cc3ccc(F)cn3)c2)c2cncc(F)c21` (single isomer, unassigned) [Example 212, N-(5-{[7-fluoro-1-(1-hydroxypropan-2-yl)-1H-pyrrolo[3,2-c]pyridin-3-yl]carbonyl}pyridin-3-yl)-2-(5-fluoropyridin-2-yl)acetamide] reads 479 nM; that for `CC(CO)n1cc(C(=O)c2cncc(NC(=O)Cc3ccc(C#N)cc3)c2)c2cncc(F)c21` (single isomer, unassigned) [Example 213, 2-(4-cyanophenyl)-N-(5-{[7-fluoro-1-(1-hydroxypropan-2-yl)-1H-pyrrolo[3,2-c]pyridin-3-yl]carbonyl}pyridin-3-yl)acetamide], 252 nM.
The figure for `CC(CO)n1cc(C(=O)c2cncc(NC(=O)Cn3ccc(C4CC4)n3)c2)c2cncc(F)c21` (single isomer, unassigned) [Example 215, 2-(3-cyclopropyl-1H-pyrazol-1-yl)-N-(5-{[7-fluoro-1-(1-hydroxypropan-2-yl)-1H-pyrrolo[3,2-c]pyridin-3-yl]carbonyl}pyridin-3-yl)acetamide] is 62 nM.
The result for `Cc1cc(C(F)(F)F)nn1CC(=O)Nc1cncc(C(=O)c2cn(C(C)CO)c3c(F)cncc23)c1` (single isomer, unassigned) [Example 216, N-(5-{[7-fluoro-1-(1-hydroxypropan-2-yl)-1H-pyrrolo[3,2-c]pyridin-3-yl]carbonyl}pyridin-3-yl)-2-[5-methyl-3-(trifluoromethyl)-1H-pyrazol-1-yl]acetamide] reads 20.4 nM; that for `CC(CO)n1cc(C(=O)c2cncc(NC(=O)Cc3ccc(C#N)cc3)c2)c2cncc(F)c21` (single isomer, unassigned) [Example 217, 2-(4-cyanophenyl)-N-(5-{[7-fluoro-1-(1-hydroxypropan-2-yl)-1H-pyrrolo[3,2-c]pyridin-3-yl]carbonyl}pyridin-3-yl)acetamide], 418 nM; that for `CC(CO)n1cc(C(=O)c2cncc(NC(=O)Cc3ccc(F)cn3)c2)c2cncc(F)c21` (single isomer, unassigned) [Example 218, N-(5-{[7-fluoro-1-(1-hydroxypropan-2-yl)-1H-pyrrolo[3,2-c]pyridin-3-yl]carbonyl}pyridin-3-yl)-2-(5-fluoropyridin-2-yl)acetamide], 425 nM.
`CC(CO)n1cc(C(=O)c2cncc(NC(=O)Cn3cc(C(F)(F)F)cn3)c2)c2cncc(F)c21` (single isomer, unassigned) [Example 219, N-(5-{[7-fluoro-1-(1-hydroxypropan-2-yl)-1H-pyrrolo[3,2-c]pyridin-3-yl]carbonyl}pyridin-3-yl)-2-[4-(trifluoromethyl)-1H-pyrazol-1-yl]acetamide] registered an IC50 of 15.2 nM.
The result for `CC(CO)n1cc(C(=O)c2cncc(NC(=O)Cn3cc(C(F)(F)F)nn3)c2)c2cncc(F)c21` (single isomer, unassigned) [Example 220, N-(5-{[7-fluoro-1-(1-hydroxypropan-2-yl)-1H-pyrrolo[3,2-c]pyridin-3-yl]carbonyl}pyridin-3-yl)-2-[4-(trifluoromethyl)-1H-1,2,3-triazol-1-yl]acetamide] reads 160 nM; that for `CC(CO)n1cc(C(=O)c2cncc(NC(=O)Cc3ccc(C(F)(F)F)cc3)c2)c2cncc(F)c21` (single isomer, unassigned) [Example 222, N-(5-{[7-fluoro-1-(1-hydroxypropan-2-yl)-1H-pyrrolo[3,2-c]pyridin-3-yl]carbonyl}pyridin-3-yl)-2-[4-(trifluoromethyl)phenyl]acetamide], 16.4 nM.
The result for `CC(CO)n1cc(C(=O)c2cncc(NC(=O)Cc3ccc(Cl)cc3)c2)c2cncc(F)c21` (single isomer, unassigned) [Example 223, 2-(4-chlorophenyl)-N-(5-{[7-fluoro-1-(1-hydroxypropan-2-yl)-1H-pyrrolo[3,2-c]pyridin-3-yl]carbonyl}pyridin-3-yl)acetamide] reads 27.8 nM.
`CC(CO)n1cc(C(=O)c2cncc(NC(=O)Cc3ccc(C(F)(F)F)cc3)c2)c2cncc(F)c21` (single isomer, unassigned) [Example 224, N-(5-{[7-fluoro-1-(1-hydroxypropan-2-yl)-1H-pyrrolo[3,2-c]pyridin-3-yl]carbonyl}pyridin-3-yl)-2-[4-(trifluoromethyl)phenyl]acetamide] yielded an IC50 of 15.4 nM.
The figure for `CC(CO)n1cc(C(=O)c2cncc(NC(=O)Cc3ccc(Cl)cn3)c2)c2cncc(F)c21` (single isomer, unassigned) [Example 225, 2-(5-chloropyridin-2-yl)-N-(5-{[7-fluoro-1-(1-hydroxypropan-2-yl)-1H-pyrrolo[3,2-c]pyridin-3-yl]carbonyl}pyridin-3-yl)acetamide] is 46.3 nM.
